Source: ChEMBL document CHEMBL1201862, “PubChem BioAssay data set” (2004)
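Step 1: Grow cells in 96-well plates. Step 2: Expose to compound for 48 hours at 5 concentrations. Step 3: Interpolate endpoints linearly; if unreached, use highest concentration. Here, GI50 denotes the concentration required for 50% inhibition of growth.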 Active and inactive are the calls of the source. No stated cut-off is given here; in the data, active = GI50 up to about 1.1 µM and inactive = higher.

Experiments:
Assay in all cases: growth of human tumour cells (NCI), 48 h
[1] = system: 786-0
[2] = system: A498
[3] = system: A549
[4] = system: ACHN
[5] = system: BT-549
[6] = system: CAKI-1
[7] = system: CCRF-CEM
[8] = system: COLO 205
[9] = system: DU-145
[10] = system: EKVX
[11] = system: HCC 2998
[12] = system: HCT-116
[13] = system: HCT-15
[14] = system: HL-60
[15] = system: HOP-62
[16] = system: HOP-92
[17] = system: HT-29
[18] = system: Hs-578T
[19] = system: IGROV-1
[20] = system: K562
[21] = system: KM12
[22] = system: LOX IMVI
[23] = system: M14
[24] = system: MCF7
[25] = system: MDA-MB-231
[26] = system: MDA-MB-435
[27] = system: MDA-N
[28] = system: MOLT-4
[29] = system: Malme-3M
[30] = system: NCI-H226
[31] = system: NCI-H23
[32] = system: NCI-H460
[33] = system: NCI-H522
[34] = system: NCI/ADR-RES
[35] = system: OVCAR-3
[36] = system: OVCAR-4
[37] = system: OVCAR-5
[38] = system: OVCAR-8
[39] = system: PC-3
[40] = system: RPMI-8226
[41] = system: RXF 393
[42] = system: SF-268
[43] = system: SF-295
[44] = system: SF-539
[45] = system: SK-MEL-28
[46] = system: SK-MEL-2
[47] = system: SK-MEL-5
[48] = system: SK-OV-3
[49] = system: SN12C
[50] = system: SNB-19
[51] = system: SNB-75
[52] = system: SR
[53] = system: SW-620
[54] = system: T47D
[55] = system: TK-10
[56] = system: U-251
[57] = system: UACC-257
[58] = system: UACC-62

Measured: GI50

COc1cc(C(=O)OC2CC34CCNC35CC(OC5(OC)C2O)c2cc3c(cc24)OCO3)ccc1O (stereo not drawn)
> 100 µM: [13]
inactive: [1] > 100 µM | [2] > 100 µM | [3] > 100 µM | [4] > 100 µM | [5] > 100 µM | [6] > 100 µM | [7] > 100 µM | [8] > 100 µM | [9] > 100 µM | [10] > 100 µM | [11] > 100 µM | [12] > 100 µM | [14] > 100 µM | [15] > 100 µM | [16] > 100 µM | [17] > 100 µM | [18] > 100 µM | [19] > 100 µM | [20] > 100 µM | [21] > 100 µM | [22] > 100 µM | [23] > 100 µM | [24] > 100 µM | [25] > 100 µM | [26] > 100 µM | [27] > 100 µM | [28] > 100 µM | [29] 8.11 µM | [30] > 100 µM | [31] > 100 µM | [32] > 100 µM | [33] > 100 µM | [34] > 100 µM | [35] > 100 µM | [36] > 100 µM | [37] > 100 µM | [38] > 100 µM | [39] > 100 µM | [40] > 100 µM | [41] > 100 µM | [42] > 100 µM | [43] > 100 µM | [44] > 100 µM | [45] > 100 µM | [46] > 100 µM | [47] > 100 µM | [48] > 100 µM | [49] > 100 µM | [50] > 100 µM | [51] 46.8 µM | [52] > 100 µM | [53] > 100 µM | [54] > 100 µM | [55] > 100 µM | [56] > 100 µM | [57] > 100 µM | [58] > 100 µM
